Source: PMC4503722, “Novel Phenotypic Outcomes Identified for a Public Collection of Approved Drugs from a Publicly Accessible Panel of Assays” (PLoS ONE, 2015)
Where a name gives a salt, the structure may show the parent alone. Read-outs that look alike come from different tables or passages of the source.

Columns and labels:
Experiment in all cases: cells
[1] = tested on: HCT116; assay type: cell-based
[2] = tested on: endothelial tube formation in co-cultures of ECFCs and ADSCs treated with VEGF; assay type: cell-based, human
[3] = tested on: INS-1E cells; assay type: cell-based, rat
[4] = tested on: HCT116 cells treated with a GSK3β inhibitor; assay type: cell-based
[5] = tested on: DLD-1; assay type: cell-based
[6] = tested on: nuclear β-catenin in C2C12 cells; assay type: cell-based
[7] = tested on: HeLa cells; assay type: cell-based; details: for EC50: read-out: CellCycle G2/M
[8] = tested on: SW480; assay type: cell-based
[9] = tested on: NCI-H716 cells; assay type: cell-based, Human
[10] = Homo sapiens; read-out: Anti-Angiogenesis
[11] = Homo sapiens, HCT-116, HCT116 pretreated with GSK3b inhibitor, read-out: GSK3b inh pretreated_Viability ATP HCT116
[12] = Homo sapiens, HeLa, S2 Table, HeLa, 20 = no response at highest concentration
[13] = Homo sapiens, SW480, basal, SW480, read-out: Basal_Viability ATP SW480
[14] = Homo sapiens, HCT-116, basal, read-out: Basal_Viability ATP HCT116
[15] = Homo sapiens, IC50 / EC50; endothelial tube area, ADSC/ECFC co-culture; read-out: Anti-Angiogenesis
[16] = Rattus norvegicus; IC50 / EC50; INS-1E; read-out: Insulin Secretion
[17] = Homo sapiens, HCT-116, GSK3b inhibitor pretreated, read-out: GSK3b inh pretreated_Viability ATP HCT116
[18] = Homo sapiens, DLD-1, basal, read-out: Basal_Viability ATP DLD-1
[19] = Mus musculus, C2C12, IC50 / EC50; C2C12 beta-catenin translocation; read-out: Wnt Pathway
[20] = Homo sapiens, HeLa, IC50 / EC50, HeLa
[21] = Homo sapiens, SW480, basal, read-out: Basal_Viability ATP SW480
[22] = Homo sapiens; IC50 / EC50; NCI-H716; read-out: GLP 1 Secretion
[23] = Homo sapiens, HCT-116, basal, HCT116, read-out: Basal_Viability ATP HCT116
[24] = Rattus norvegicus, INS-1E; read-out: Insulin Secretion
[25] = Homo sapiens, DLD-1, basal, DLD-1, read-out: Basal_Viability ATP DLD-1
[26] = Mus musculus, C2C12, S2 Table; module primary assay; 20 / 20.1 codes per legend; read-out: Wnt Pathway
[27] = Homo sapiens, NCI-H716; read-out: GLP 1 Secretion

Compound Clc1ccc(Nc2nnc(Cc3ccncc3)c3ccccc23)cc1 [vatalanib, reference compound] has an IC50 ([1]; Homo sapiens, HCT-116, 72 h, read-out: HCT-116 viab. IC50, Table 2, basal, 72 h, Cell TiterGlo, non-adherent, 20 coded) greater than 20 µM, an IC50 ([2]; Homo sapiens; read-out: Anti-Angio IC50) of 0.11 µM and an IC50 [2, 10] of 0.111 µM. It also gave an EC50 ([3]; Rattus norvegicus, INS-1E; read-out: Ins. sec. EC50) greater than 10 µM, an IC50 ([4]; Homo sapiens, HCT-116, read-out: HCT-116 (GSK3β) viab. IC50, Table 2, GSK3β inhibitor LY2090314 20 nM, 72 h, Cell TiterGlo, 20 coded) of 10.5 µM and an IC50 [4, 11] of 10.5 µM. The IC50 ([5]; Homo sapiens, DLD-1, 72 h, Table 2, 72 h, Cell TiterGlo, non-adherent, 20 coded, read-out: DLD-1 viab. IC50) was greater than 20 µM, the “activity in the Wnt potentiation module (in words)” value [6] was “None of these agents, however, possessed appreciable activity” and the EC50 ([6]; Mus musculus, C2C12, Table 2; C2C12; […]; 20 / 20.1 coded; read-out: Wnt pot. EC50) was greater than 10 µM. The “G2/M IC50 / EC50” value [7] was 20 (values shown as 20 indicate that the compound was tested in concentration-response and showed no response at the highest concentration tested (e.g. IC50 > 20 μM)), the EC50 [7, 12] was greater than 10 µM and the IC50 ([8]; Homo sapiens, SW480, 72 h, Table 2, 72 h, Cell TiterGlo, non-adherent, 20 coded, read-out: SW480 viab. IC50) was 19.5 µM. It also gave an IC50 [8, 13] of 19.5 µM and an EC50 ([9]; Homo sapiens, NCI-H716; read-out: GLP1 sec. EC50) greater than 10 µM.

Nc1nc(=O)n([C@@H]2O[C@H](CO)[C@@H](O)[C@@H]2F)cc1I [Fiacitabine] showed an IC50 [1, 14] greater than 20 µM, an IC50 [2, 15] of 3.47 µM and an EC50 [3, 16] greater than 10 µM. For the same compound, the IC50 [4, 17] was greater than 20 µM, the IC50 [5, 18] was greater than 20 µM and the EC50 [6, 19] was greater than 10 µM. The EC50 [7, 20] was greater than 10 µM, the IC50 [8, 21] was greater than 20 µM and the EC50 [9, 22] was greater than 10 µM.

CN(C)/N=N/c1[nH]cnc1C(N)=O [dacarbazine] gave an IC50 [1, 23] greater than 20 µM, an IC50 [2, 10] of 4.59 µM and an EC50 [3, 24] greater than 10 µM. The IC50 [4, 11] was greater than 20 µM, the IC50 [5, 25] was greater than 20 µM and the EC50 [6, 26] was greater than 10 µM. The EC50 [7, 12] was greater than 10 µM, the IC50 [8, 13] was greater than 20 µM and the EC50 [9, 27] was greater than 10 µM.

For CO[C@@H]1[C@@H](OC)[C@H](C)[C@@](O)(CC(=O)O)O[C@H]1[C@H](C)[C@H]1O[C@@]2(CC[C@@](C)([C@H]3CC[C@@](C)([C@@H]4O[C@@H]([C@H]5O[C@](C)(O)[C@H](C)C[C@@H]5C)C[C@@H]4O[C@@H]4C[C@H](OC)[C@@H](OC)[C@H](C)O4)O3)O2)C[C@H](O)[C@H]1C [Maduramicin ammonium], the IC50 [1, 14] was 8.6 µM, the IC50 [2, 15] was 0.252 µM and the EC50 [3, 16] was greater than 10 µM. It also gave an IC50 [4, 17] of 1.16 µM, an IC50 [5, 18] of 1.08 µM and an EC50 [6, 19] greater than 10 µM. The EC50 [7, 20] was greater than 10 µM, the IC50 [8, 21] was 1.45 µM and the EC50 [9, 22] was greater than 10 µM.

In the case of O=c1[nH]c(=O)n([C@H]2C[C@H](O)[C@@H](CO)O2)cc1I [idoxuridine], the IC50 [1, 23] is reported as greater than 20 µM, the IC50 [2, 10] is reported as 0.681 µM and the EC50 [3, 24] is reported as greater than 10 µM. For the same compound, the IC50 [4, 11] was greater than 20 µM, the IC50 [5, 25] was greater than 20 µM and the EC50 [6, 26] was greater than 10 µM. For the same compound, the EC50 [7, 12] was greater than 10 µM, the IC50 [8, 13] was greater than 20 µM and the EC50 [9, 27] was greater than 10 µM.

CCOc1ccc2nc3cc(N)ccc3c(N)c2c1 [Acrinol] gave an IC50 ([1]; read-out: Basal_Viability ATP HCT116) of 15.7 µM, an IC50 ([2]; read-out: Anti-Angiogenesis) of 4.94 µM and an EC50 ([3]; read-out: Insulin Secretion) greater than 10 µM. For the same compound, the IC50 ([4]; read-out: GSK3b inh pretreated_Viability ATP HCT116) was 5.92 µM, the IC50 ([5]; read-out: Basal_Viability ATP DLD-1) was greater than 20 µM and the EC50 ([6]; read-out: Wnt Pathway) was greater than 10 µM. For the same compound, the EC50 [7] was greater than 10 µM, the IC50 ([8]; read-out: Basal_Viability ATP SW480) was 3.23 µM and the EC50 ([9]; read-out: GLP 1 Secretion) was greater than 10 µM.

CC[C@H](C)C(=O)O[C@H]1C[C@@H](C)C=C2C=C[C@H](C)[C@H](CC[C@@H]3C[C@@H](O)CC(=O)O3)[C@H]21 [lovastatin, reference compound] gave an IC50 ([1]; Homo sapiens, HCT-116, read-out: Basal_Viability ATP HCT116) of 1.75 µM, an IC50 ([2]; Homo sapiens, read-out: Anti-Angiogenesis) of 3.27 µM and an EC50 ([3]; Rattus norvegicus, INS-1E, read-out: Insulin Secretion) greater than 10 µM. It also gave an IC50 ([4]; Homo sapiens, HCT-116, read-out: GSK3b inh pretreated_Viability ATP HCT116) of 7.36 µM, an IC50 ([5]; Homo sapiens, DLD-1, read-out: Basal_Viability ATP DLD-1) of 19.2 µM and an EC50 ([6]; Mus musculus, C2C12, read-out: Wnt Pathway) greater than 10 µM. For the same compound, the EC50 ([7]; Homo sapiens, HeLa) was greater than 10 µM, the IC50 ([8]; Homo sapiens, SW480, read-out: Basal_Viability ATP SW480) was 4.73 µM and the EC50 ([9]; Homo sapiens, NCI-H716, read-out: GLP 1 Secretion) was greater than 20 µM.

With CC(C)OC(=O)OCOP(=O)(CO[C@H](C)Cn1cnc2c(N)ncnc21)OCOC(=O)OC(C)C [Tenofovir disoproxil fumarate] the IC50 [1, 14] was greater than 20 µM, the IC50 [2, 15] was 3.84 µM and the EC50 [3, 16] was greater than 10 µM. For the same compound, the IC50 [4, 17] was greater than 20 µM, the IC50 [5, 18] was 19.6 µM and the EC50 [6, 19] was greater than 10 µM. For the same compound, the EC50 [7, 20] was greater than 10 µM, the IC50 [8, 21] was greater than 20 µM and the EC50 [9, 22] was greater than 10 µM.

CC(=O)Oc1ccccc1C(=O)Nc1ncc([N+](=O)[O-])s1 [nitazoxanide] gave an IC50 [1, 23] of 2.81 µM, an IC50 [2, 10] of 2.06 µM and an EC50 [3, 24] greater than 10 µM. For the same compound, the IC50 [4, 11] was 2.46 µM, the IC50 [5, 25] was 3.09 µM and the EC50 [6, 26] was greater than 10 µM. The EC50 [7, 12] was greater than 10 µM, the IC50 [8, 13] was 3.03 µM and the EC50 [9, 27] was greater than 10 µM.

With CCCCc1ccc2[nH]c(NC(=O)OC)nc2c1 [parbendazole] the IC50 [1, 23] was 0.118 µM, the IC50 [2, 10] was 0.053 µM and the EC50 [3, 24] was greater than 10 µM. The IC50 [4, 11] was 0.105 µM, the IC50 [5, 25] was 0.64 µM and the EC50 ([6]; Mus musculus, C2C12; read-out: Wnt Pathway) was 0.0336 µM. The EC50 [7, 12] was 0.0106 µM, the IC50 [8, 13] was 1.99 µM and the EC50 [9, 27] was greater than 10 µM.
